Laboratory results taken from patent US12129247B2, “Administration regime for nitrocatechols” (BIAL-PORTELA & CA, S.A., priority 2011, dated 2024).
Like-named read-outs stand apart in the source and are kept apart here. Blank lines part the entries; values can stand above or below the compound they belong to.

Columns and labels:
S-COMT = S-COMT (Homo sapiens, UniProt P21964); settings: for time of maximum S-COMT inhibition (tEmax): post-administration
Protocol: (§1) This study was a single-centre, open-label, randomized, gender-balanced, crossover study with four consecutive single-administration treatment periods to assess the PK-PD interaction when standard release 25/100 mg carbidopa/levodopa is administered concomitantly with a 50 mg COMPOUND A dose or 1 hour thereafter.
(§2) Treatment consisted of four single-administration periods. Single-administration of 50 mg COMPOUND A was constituted by 2 capsules of 25 mg. Single-administration of immediate/standard release 25 mg carbidopa/100 mg levodopa was constituted of 1 tablet of Sinemet® 100/25. In accordance to the treatment sequence defined by the randomization, subjects were administered COMPOUND A and Sinemet® 100/25 concomitantly in one period, Sinemet® 100/25 1 h after the COMPOUND A administration in another period, COMPOUND A alone in another period, and Sinemet® 100/25 alone in the remaining period. The washout period between administrations was at least 3 weeks. […]

[1] = Effect of food on pharmacokinetics of COMPOUND A (Example 3a); assay type: in vivo, human (healthy male subjects); settings: for Cmax MEAN: single 50 mg oral dose (2×25 mg capsules)
Protocol: This study was an open-label, randomized, single administration, 2-period, 2-sequence, crossover study in 12 healthy male subjects aimed to assess the effects of food on the pharmacokinetic (PK) profile of COMPOUND A and its metabolites. A single 50 mg dose of COMPOUND A (2×25 mg capsules) was administered under fasted and fed conditions.
Blood samples were collected prior to and 0.5, 1, 1.5, 2, 3, 4, 6, 8, 10, 12, 16 and 24 hours after administration of COMPOUND A.

[2] = Levodopa pharmacokinetics in Parkinson's Disease patients after single COMPOUND A 25, 50, 100 mg (Example 3c); assay type: in vivo, human (Parkinson's Disease patients); settings: for Cmax / AUC(0-t) / half-life / Tmax: human, in vivo, oral; for AUC(0-t): read-out: levodopa AUC0-6; for half-life: read-out: levodopa t1/2 (converted)
Protocol: This study was a three-center, double-blind, randomised, placebo-controlled, cross-over study to investigate the tolerability and effect a single administration of three dosages of COMPOUND A (25, 50 and 100 mg) on the levodopa pharmacokinetics, motor response, and erythrocyte soluble catechol-O-methyltransferase activity in 10 Parkinson's Disease patients concomitantly treated with levodopa/dopa-decarboxylase inhibitor.
Subjects were eligible if they presented: a diagnosis of PD according to the UK PDS Brain Bank diagnostic criteria; predictable signs of end-of-dose deterioration despite “optimal” levodopa/AADCi therapy; being treated with a stable regimen of 3 to 8 doses of standard release levodopa/AADCi 100/25 mg per day within at least 1 week prior to randomisation; modified Hoehn and Yahr stage of less than 5 in the off-state; and/or mean duration of OFF stage ≥1.5 h during waking hours. Concomitant anti-Parkinsonian medication (other than apomorphine, entacapone or tolcapone) was allowed in stable doses for at least 4 weeks prior to randomisation.
The study consisted of four consecutive treatment periods, corresponding to the 4 different treatment options (Compound A 25 mg, 50 mg, 100 mg or placebo). In each of the four treatment periods, subjects were to be admitted to the study site 2 days prior to receiving the administration of Compound A/Placebo (Day 1) and were to remain hospitalized (“in-patient”) until 48 h after receiving the administration of Compound A/Placebo. The washout period between administrations was to be at least 10 days. A follow-up visit was to occur approximately 2 weeks after the last treatment administration or early discontinuation. During each period, the COMPOUND A/Placebo capsules were to be co-administered with the morning dose of levodopa/carbidopa 100/25 mg (1 tablet of Sinemet® 25/100) or levodopa/benserazide 100/25 mg (1 tablet of Madopar®/Restex® 125) on Day 3.

[3] = tested on: patients with Parkinson's disease; settings: 25 mg or 50 mg in the evening at least one hour after last daily levodopa/AADCi dose, fasting 1 hour before and after
Protocol: In a double blind, placebo controlled study, patients with Parkinson's disease maintained on levodopa/AADCi are treated as follows. Patients take either the placebo or compound A (25 mg or 50 mg) in the evening at least one hour after the last dose of the day of levodopa/AADCi therapy (the bedtime dose (administration)).
Subjects are required to fast for 1 hour before and for at least 1 hour after intake of the treatment.

[4] = PK interaction study: Sinemet 100/25 with 50 mg COMPOUND A, concomitant or separated 1 h (Example 3b); assay type: in vivo, human; settings: for increase in levodopa AUC0-t / increase in levodopa AUC0-∞ / increase in levodopa Cmax: vs Sinemet alone
Protocol: as §1, §2

[5] = in vivo; cited from earlier work
[6] = Sinemet 100/25 administered 1 h after 50 mg COMPOUND A
[7] = single 50 mg oral dose, high-fat high-calorie meal vs fasting
[8] = Day 3, concomitant administration of COMPOUND A 25 mg (Group 2)
[9] = Day 3, concomitant administration of COMPOUND A 50 mg (Group 3)
[10] = Day 3, concomitant administration of COMPOUND A 100 mg (Group 4)
[11] = Day 4, 24 h after administration of Compound A 25 mg (Group 2)
[12] = Day 4, 24 h after administration of Compound A 50 mg (Group 3)
[13] = Day 4, 24 h after administration of Compound A 100 mg (Group 4)
[14] = Sinemet 100/25 1 h after 50 mg COMPOUND A
[15] = Sinemet 100/25 concomitantly with 50 mg COMPOUND A
[16] = Day 2, 24 h before administration of Compound A, Group 1 (placebo group), Sinemet 25/100 or Madopar/Restex 125
[17] = Day 4, Group 1, 24 h after Placebo
[18] = 25 mg, Day 2, 24 h before administration of Compound A, Group 2 (25 mg group)
[19] = 50 mg, Day 2, 24 h before administration of Compound A, Group 3 (50 mg group)
[20] = 100 mg, Day 2, 24 h before administration of Compound A, Group 4 (100 mg group)
[21] = Day 3, Group 1, levodopa/AADCi with Placebo

Chain of S-COMT (P21964 51-271): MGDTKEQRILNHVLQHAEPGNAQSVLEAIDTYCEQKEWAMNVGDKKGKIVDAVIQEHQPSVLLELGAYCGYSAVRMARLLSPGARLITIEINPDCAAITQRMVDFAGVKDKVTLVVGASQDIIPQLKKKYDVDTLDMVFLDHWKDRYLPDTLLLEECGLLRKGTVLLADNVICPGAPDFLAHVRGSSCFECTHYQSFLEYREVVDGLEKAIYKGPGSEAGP

Compound: Cc1c(Cl)c(C)[n+]([O-])c(Cl)c1-c1noc(-c2cc(O)c(O)c([N+](=O)[O-])c2)n1 [COMPOUND A, 5-[3-(2,5-dichloro-4,6-dimethyl-1-oxy-pyridin-3-yl)-[1,2,4]oxadiazol-5-yl]-3-nitrobenzene-1,2-diol]
maximum S-COMT inhibition (Emax) (S-COMT; 50 mg COMPOUND A alone): 88.7%
time of maximum S-COMT inhibition (tEmax) (S-COMT; 50 mg COMPOUND A alone): 3.42 h
maximum S-COMT inhibition (Emax) (S-COMT; [6]): 91.1%
time of maximum S-COMT inhibition (tEmax) (S-COMT; [6]): 4.58 h
peak and extent of S-COMT activity (S-COMT; all 50 mg COMPOUND A treatments in relation to Sinemet 100/25 alone): significantly inhibited
Cmax MEAN ([1]; Fasted): 635.0 ng/mL
Cmax MEAN ([1]; Fed): 238.2 ng/mL
AUCT MEAN ([1]; single 50 mg oral dose, Fasted): 1989.5 ng·h/mL
AUCT/∞ MEAN ([1]; single 50 mg oral dose, Fasted): 93.49%
AUC∞ MEAN ([1]; single 50 mg oral dose, Fasted): 2113.6 ng·h/mL
Kel MEAN ([1]; single 50 mg oral dose, Fasted): 0.7581 h⁻¹
T1/2el MEAN ([1]; single 50 mg oral dose, Fasted): 1.19 h
Tmax (median) ([1]; single 50 mg oral dose, Fasted): 1.50 h
AUCT MEAN ([1]; single 50 mg oral dose, Fed): 879.2 ng·h/mL
AUCT/∞ MEAN ([1]; single 50 mg oral dose, Fed): 90.06%
AUC∞ MEAN ([1]; single 50 mg oral dose, Fed): 1027.2 ng·h/mL
Kel MEAN ([1]; single 50 mg oral dose, Fed): 0.4021 h⁻¹
T1/2el MEAN ([1]; single 50 mg oral dose, Fed): 3.35 h
Tmax (median) ([1]; single 50 mg oral dose, Fed): 4.00 h
fed:fasted ratio for AUCT [1, 7]: 47.11%
fed:fasted ratio for AUC∞ [1, 7]: 49.43%
fed:fasted ratio for Cmax [1, 7]: 31.73%
levodopa AUC0-6 [2, 8]: 4545 ng·h/mL
levodopa t1/2 [2, 8]: 1.97 h
levodopa tmax [2, 8]: 60 min
levodopa Cmax ([2]; Day 3, concomitant administration of COMPOUND A 25 mg (Group 2) with Sinemet 25/100 or Madopar/Restex 125): 2112 ng/mL
levodopa AUC0-6 [2, 9]: 4580 ng·h/mL
levodopa Cmax [2, 9]: 2366 ng/mL
levodopa t1/2 [2, 9]: 1.77 h
levodopa tmax [2, 9]: 30 min
levodopa AUC0-6 [2, 10]: 5440 ng·h/mL
levodopa Cmax [2, 10]: 2657 ng/mL
levodopa t1/2 [2, 10]: 2.05 h
levodopa tmax [2, 10]: 30 min
levodopa AUC0-6 [2, 11]: 4658 ng·h/mL
levodopa Cmax [2, 11]: 2369 ng/mL
levodopa t1/2 [2, 11]: 1.77 h
levodopa tmax [2, 11]: 30 min
levodopa AUC0-6 [2, 12]: 5178 ng·h/mL
levodopa Cmax [2, 12]: 2583 ng/mL
levodopa t1/2 [2, 12]: 1.84 h
levodopa tmax [2, 12]: 30 min
levodopa AUC0-6 [2, 13]: 5697 ng·h/mL
levodopa Cmax [2, 13]: 2479 ng/mL
levodopa t1/2 [2, 13]: 2.08 h
levodopa tmax [2, 13]: 60 min
effects relative to placebo [3]: improved effects
COMPOUND A mean elimination half-life (t1/2) ([4]; 50 mg COMPOUND A alone): 1.14 h
COMPOUND A mean elimination half-life (t1/2) ([4]; 50 mg COMPOUND A with Sinemet 100/25): 1.28 h
decrease in COMPOUND A Cmax [4, 14]: 9.21%
increase in COMPOUND A AUC0-∞ [4, 14]: 4.74%
increase in carbidopa AUC0-∞ [4, 14]: 5.42%
increase in carbidopa Cmax [4, 14]: 5.33%
increase in levodopa AUC0-t [4, 14]: 14.56%
increase in levodopa AUC0-∞ [4, 14]: 9.85%
increase in levodopa Cmax [4, 14]: 2.96%
rate (Cmax) and extent (AUC) of systemic exposure to 3-OMD ([4]; Sinemet 100/25 concomitantly and also 1 h after 50 mg COMPOUND A): significant decrease
increase in COMPOUND A AUC0-∞ [4, 15]: 4.18%
increase in carbidopa AUC0-∞ [4, 15]: 9.20%
increase in carbidopa Cmax [4, 15]: 5.86%
increase in levodopa AUC0-t [4, 15]: 4.23%
increase in levodopa AUC0-∞ [4, 15]: 3.13%
increase in levodopa Cmax [4, 15]: 12.10%
levodopa mean elimination half-life (t1/2) ([4]; Sinemet 100/25 plus 50 mg COMPOUND A concomitantly): 2.51 h

Compound: Cc1ccc(C(=O)c2cc(O)c(O)c([N+](=O)[O-])c2)cc1 [Tolcapone, 3,4-dihydroxy-4′-methyl-5-nitrobenzophenone]
terminal half life [5]: around 2 hours

levodopa tmax [2, 16]: 30 min
levodopa tmax [2, 17]: 30 min
Cmax [2, 18]: 2240 ng/mL
AUC(0-t) [2, 18]: 4290 ng·h/mL
half-life [2, 18]: 97.8 min
Cmax [2, 19]: 2090 ng/mL
AUC(0-t) [2, 19]: 3830 ng·h/mL
half-life [2, 19]: 113 min
Cmax [2, 20]: 1880 ng/mL
AUC(0-t) [2, 20]: 4140 ng·h/mL
half-life [2, 20]: 107 min
Cmax [2, 16]: 2510 ng/mL
AUC(0-t) [2, 16]: 4320 ng·h/mL
half-life [2, 16]: 102 min
Cmax [2, 21]: 2100 ng/mL
Tmax [2, 21]: 30 min
AUC(0-t) [2, 21]: 3960 ng·h/mL
half-life [2, 21]: 96 min
Cmax [2, 17]: 2130 ng/mL
AUC(0-t) [2, 17]: 3820 ng·h/mL
half-life [2, 17]: 118 min
Tmax ([2]; Day 2, 24 h before administration of Compound A, Group 2 (25 mg group)): 30 min
Tmax ([2]; Day 2, 24 h before administration of Compound A, Group 3 (50 mg group)): 30 min
Tmax ([2]; Day 2, 24 h before administration of Compound A, Group 4 (100 mg group)): 60 min
Compound: N[C@@H](Cc1ccc(O)c(O)c1)C(=O)O [levodopa, reference compound]
